Test results published in the supplement of paper PMC4862054.

Legend:
Settings in all cases: incubation time: 72 h
[1] = test system: BT-474; assay: drug sensitivity score (DSS), CellTiter-Glo (DSS (AUC-based score)); higher = stronger drug effect (viability inhibition or cytotoxicity); extreme values may be limits of the assay
Summary of the method: (§1)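 Breast cancer cells were seeded into 384-well plates containing compound at 5 concentrations in 10-fold steps over a compound-specific 10,000-fold range and incubated 72 h. After CellTox Green and CellTiter-Glo readings, each plate was normalised to 0.1 % DMSO and a positive kill control. The drug sensitivity score rests on the area under the fitted dose-response curve.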

[2] = test system: BT-549; assay: as above
Summary of the method: as §1

[3] = test system: CAL-120; assay: as above
Summary of the method: as §1

[4] = test system: CAL-148; assay: as above
Summary of the method: as §1

[5] = test system: CAL-51; assay: as above
Summary of the method: as §1

[6] = test system: CAL-85-1; assay: as above
Summary of the method: as §1

[7] = test system: DU-4475; assay: as above
Summary of the method: as §1

[8] = test system: HCC1143; assay: as above
Summary of the method: as §1

[9] = test system: MCF-10A; assay: as above
Summary of the method: as §1

[10] = test system: MDA-MB-453; assay: as above
Summary of the method: as §1

[11] = test system: SK-BR-3; assay: as above
Summary of the method: as §1

[12] = test system: BT-474; assay: drug sensitivity score (DSS), CellTox Green (DSS (AUC-based score)); higher = stronger drug effect (viability inhibition or cytotoxicity); extreme values may be limits of the assay
Summary of the method: as §1

[13] = test system: BT-549; assay: as above
Summary of the method: as §1

[14] = test system: CAL-120; assay: as above
Summary of the method: as §1

[15] = test system: CAL-148; assay: as above
Summary of the method: as §1

[16] = test system: CAL-51; assay: as above
Summary of the method: as §1

[17] = test system: CAL-85-1; assay: as above
Summary of the method: as §1

[18] = test system: DU-4475; assay: as above
Summary of the method: as §1

[19] = test system: HCC1143; assay: as above
Summary of the method: as §1

[20] = test system: HCC1599; assay: as above
Summary of the method: as §1

[21] = test system: HCC1937; assay: as above
Summary of the method: as §1

[22] = test system: HDQ-P1; assay: as above
Summary of the method: as §1

[23] = test system: MCF-10A; assay: as above
Summary of the method: as §1

[24] = test system: MDA-MB-231; assay: as above
Summary of the method: as §1

[25] = test system: MDA-MB-468; assay: as above
Summary of the method: as §1

[26] = test system: MFM-223; assay: as above
Summary of the method: as §1

[27] = test system: MDA-MB-436; assay: as above
Summary of the method: as §1

| SMILES | drug sensitivity score [1] | drug sensitivity score [2] | drug sensitivity score [3] | drug sensitivity score [4] | drug sensitivity score [5] | drug sensitivity score [6] | drug sensitivity score [7] | drug sensitivity score [8] | drug sensitivity score [9] | drug sensitivity score [10] | drug sensitivity score [11] | drug sensitivity score [12] | drug sensitivity score [13] | drug sensitivity score [14] | drug sensitivity score [15] | drug sensitivity score [16] | drug sensitivity score [17] | drug sensitivity score [18] | drug sensitivity score [19] | drug sensitivity score [20] | drug sensitivity score [21] | drug sensitivity score [22] | drug sensitivity score [23] | drug sensitivity score [24] | drug sensitivity score [25] | drug sensitivity score [26] | drug sensitivity score [27] |
| --- | --- | --- | --- | --- | --- | --- | --- | --- | --- | --- | --- | --- | --- | --- | --- | --- | --- | --- | --- | --- | --- | --- | --- | --- | --- | --- | --- |
| CC(C)(C)c1cc(NC(=O)Nc2ccc(-c3cn4c(n3)sc3cc(OCCN5CCOCC5)ccc34)cc2)no1 [Quizartinib] | 0 | 0 | 0 | 0 | 0 | 0 | 0 | 0 | 0 | 0 | 0 | 0 | 0 | 0 | 0 | 0 | 0 | 0 | 0 | 0 | 0 | 0 | 0 | 0 | 0 | 0 | – |
| CN(c1ccccc1CNc1nc(Nc2ccc3c(c2)CC(=O)N3)ncc1C(F)(F)F)S(C)(=O)=O | 7.07 | 5.64 | 4.65 | 1.24 | 10.6 | 6.85 | 7.61 | 4.97 | 9.21 | 0 | 5.83 | 0 | 0.974 | 0 | 0 | 17.6 | 3.86 | 0 | 5.18 | 1.23 | 0 | 9.69 | 9.63 | 8.46 | 0 | 0 | 0 |
| CS(=O)(=O)CCNCc1ccc(-c2ccc3ncnc(Nc4ccc(OCc5cccc(F)c5)c(Cl)c4)c3c2)o1 [Lapatinib] | 0 | 0 | 0 | 0 | 0 | 1.7 | 0 | 0 | 4.31 | 1.41 | 10.8 | 0 | 0 | 0 | 2.94 | 0 | 0 | 0 | 0 | 0 | 2.25 | 0 | 2.1 | 1.62 | 0 | 0 | 0 |
| COC1=C2C[C@@H](C)C[C@H](OC)[C@H](O)[C@@H](C)/C=C(\C)[C@H](OC(N)=O)[C@@H](OC)/C=C\C=C(/C)C(=O)NC(=CC1=O)C2=O [Geldanamycin] | 4.34 | 5.68 | 2.21 | 1.87 | 5.12 | 6 | 6.88 | 2.36 | 3.98 | 3.9 | 5.98 | 2.54 | 0 | 0 | 0 | 1.35 | 6.66 | 0.88 | 0 | 0 | 6.9 | 0 | 7.09 | 4.3 | 25 | 2.69 | 0 |
| CC(=O)O[C@H]1C(=O)[C@@]2(C)[C@H]([C@H](OC(=O)c3ccccc3)[C@]3(O)C[C@H](OC(=O)[C@H](O)[C@@H](NC(=O)c4ccccc4)c4ccccc4)C(C)=C1C3(C)C)[C@]1(OC(C)=O)CO[C@@H]1C[C@@H]2O [Paclitaxel] | 17.2 | 24.3 | 13.2 | 18.3 | 18.9 | 22.8 | 10.4 | 20.9 | 19.8 | 9.73 | 33.6 | 12.7 | 9.38 | 2.71 | 7.75 | 22.7 | 23.2 | 0 | 0 | 0 | 0 | 0 | 21.4 | 25.5 | 26.9 | 13.7 | 7.09 |
| CCCC(CCC)C(=O)O [Valproic acid] | 0 | 0 | 0 | 0 | 1.6 | 0 | 0 | 0 | 0 | 1.51 | 0 | 0 | 0 | 0 | 0 | 0 | 0 | 0 | 0 | 0 | 0 | 0 | 0 | 0 | 0 | 0 | 0 |
| COC(=O)C[C@](O)(CCCC(C)(C)O)C(=O)O[C@@H]1C(OC)=C[C@]23CCCN2CCc2cc4c(cc2[C@H]13)OCO4 [Omacetaxine] | 16.7 | 26.7 | 19 | 19.9 | 27.1 | 29.6 | 30.6 | 22.4 | 22.1 | 16.8 | 23.4 | 0.916 | 4.27 | 1.24 | 6.49 | 0 | 29 | 0 | 0 | 0 | 0 | 3.97 | 13.3 | 7.01 | 3.61 | 18.3 | 1.54 |
| COc1ccc(C2=N[C@@H](c3ccc(Cl)cc3)[C@@H](c3ccc(Cl)cc3)N2C(=O)N2CCNC(=O)C2)c(OC(C)C)c1 [Nutlin-3] | 0 | 0 | 0 | 0.553 | 10.8 | 0 | 0.984 | 0 | 0 | 0.52 | 0 | 0 | 0 | 0 | 1.15 | 13.1 | 0 | 0 | 0 | 0 | 2.28 | 0 | 0 | 0 | 0 | 0 | 0 |
| CCS(=O)(=O)c1cccc(-c2cc(C(=O)NC3CCN(C)CC3)c(C)c3[nH]c4ncc(C)cc4c23)c1 [TAK-901] | 6.57 | 6.76 | 4.67 | 0 | 0 | 0 | 0 | 4.84 | 7.18 | 0 | 0 | 0 | 0.958 | 0 | 0 | – | 0 | 0 | 0 | 0 | 0 | 0 | 0 | 3.45 | 0 | 0 | 0 |
| O=c1[nH]cc(F)c(=O)[nH]1 [Fluorouracil] | 0 | 0 | 0 | 0 | 0 | 8.63 | 0 | 0 | 0 | 0 | 1.79 | 0 | 0 | 0 | 0 | 0 | 0 | 0 | 0 | 0 | 0 | 0 | 0 | 0 | – | 0 | 0.291 |
| O=c1[nH]c(=O)n([C@H]2C[C@H](O)[C@@H](CO)O2)cc1F [Floxuridine] | 5.99 | 1.93 | 11.1 | 0 | 17.3 | 17.5 | 1.58 | 0 | 0 | 0 | 12 | 0 | 0 | 0 | 0 | 5.94 | 4.11 | 0 | 0 | 0 | 0 | 1.01 | 0 | 0 | 0 | – | 0 |
| COc1cc(Nc2ncc(F)c(Nc3ccc4c(n3)NC(=O)C(C)(C)O4)n2)cc(OC)c1OC [Tamatinib] | 0 | 4.09 | 0 | 0 | 2.11 | 0 | 0 | 0 | 0 | 0 | 0 | 0 | 0 | 0 | 0 | 1.13 | 0 | 0 | 0 | 0 | 0 | 0 | 0 | 0 | – | 0 | 0 |
| Cn1cnc2c(F)c(Nc3ccc(Br)cc3F)c(C(=O)NOCCO)cc21 [MEK-162] | 2.42 | 0 | 0.188 | 0 | 0 | 0 | 12.5 | 0 | 13.3 | 0 | 0 | 0 | 0 | 0 | 1.61 | 0 | 0 | 1.92 | 0 | 0 | – | 1.87 | 0 | – | 0 | 3.03 | 0 |
